Results: PubChem BioAssay (NCI)
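Following 48 hours of exposure in 96-well plates, responses at five concentrations were used to interpolate endpoints linearly. Abbreviation: GI50, concentration required for 50% inhibition of growth. TGI is the concentration that stops growth completely.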 Residues, ends and D or L forms follow the SMILES beside them. *: point of attachment. Boc = CC(C)(C)OC(=O)*; OBn = c1ccc(CO*)cc1

Experiments:
Assay in all cases: DTP human tumour cell line panel, 48 h
[1] = system: SR leukemia
[2] = system: SK-MEL-2 melanoma
[3] = system: MDA-MB-435
[4] = system: OVCAR-5 ovarian
[5] = system: OVCAR-3 ovarian
[6] = system: A498 renal
[7] = system: U251 CNS
[8] = system: HOP-62 NSCLC
[9] = system: HL-60(TB) leukemia
[10] = system: SNB-75 CNS
[11] = system: CCRF-CEM leukemia
[12] = system: RPMI-8226 leukemia
[13] = system: OVCAR-4 ovarian
[14] = system: UACC-257 melanoma
[15] = system: ACHN renal
[16] = system: DU-145 prostate
[17] = system: HCT-15 colon
[18] = system: HS 578T breast
[19] = system: M14 melanoma
[20] = system: MOLT-4 leukemia
[21] = system: SK-MEL-28 melanoma
[22] = system: K-562 leukemia
[23] = system: NCI-H23 lung
[24] = system: NCI-H226 lung
[25] = system: KM12 colon
[26] = system: NCI/ADR-RES ovarian
[27] = system: TK-10 renal
[28] = system: HOP-92 NSCLC
[29] = system: SW-620 colon
[30] = system: LOX IMVI melanoma
[31] = system: UACC-62 melanoma
[32] = system: A549 NSCLC
[33] = system: RXF 393 renal
[34] = system: SF-295 CNS
[35] = system: SF-539 CNS
[36] = system: PC-3 prostate
[37] = system: 786-0 renal
[38] = system: SNB-19 CNS
[39] = system: OVCAR-8 ovarian
[40] = system: SK-OV-3 ovarian
[41] = system: COLO 205 colon
[42] = system: MCF7 breast
[43] = system: SN12C renal
[44] = system: UO-31 renal
[45] = system: HCT-116 colon
[46] = system: MDA-MB-231 breast
[47] = system: T-47D breast
[48] = system: CAKI-1 renal
[49] = system: HCC-2998 colon
[50] = system: HT29 colon
[51] = system: SF-268 CNS
[52] = system: SK-MEL-5 melanoma
[53] = system: IGROV1 ovarian
[54] = system: EKVX NSCLC
[55] = system: BT-549 breast
[56] = system: NCI-H522 lung
[57] = system: NCI-H460 lung

For `CC(C)C(NC(=O)OC(C)(C)C)C(=O)N1CCCC1C(=O)OCc1ccccc1` (stereo not drawn) (Boc-Val-Pro-OBn; configuration not given here), the GI50 [1] was 90.6 µg/mL and the GI50 [2] was 46.3 µg/mL.

With `O=C1CC(c2cccc(Cl)c2)n2cccc21` (stereo not drawn) the TGI [3] was > 100 µM, the TGI [4] was > 100 µM and the TGI [5] was > 100 µM. For the same compound, the TGI [1] was > 100 µM, the TGI [6] was > 100 µM and the TGI [7] was > 100 µM. The TGI [8] was > 100 µM, the TGI [9] was 92.7 µM and the TGI [10] was > 100 µM. The TGI [11] was > 100 µM, the TGI [12] was > 100 µM and the TGI [13] was > 100 µM. For the same compound, the TGI [14] was > 100 µM, the TGI [15] was > 100 µM and the TGI [16] was > 100 µM. The TGI [17] was > 100 µM, the TGI [18] was > 100 µM and the TGI [19] was > 100 µM. The TGI [20] was > 100 µM, the TGI [21] was > 100 µM and the TGI [22] was > 100 µM. The TGI [23] was > 100 µM, the TGI [24] was > 100 µM and the TGI [25] was > 100 µM. The TGI [26] was > 100 µM, the TGI [27] was > 100 µM and the TGI [2] was > 100 µM. For the same compound, the TGI [28] was > 100 µM, the TGI [29] was > 100 µM and the TGI [30] was > 100 µM. For the same compound, the TGI [31] was > 100 µM, the TGI [32] was > 100 µM and the TGI [33] was > 100 µM. For the same compound, the TGI [34] was > 100 µM, the TGI [35] was > 100 µM and the TGI [36] was > 100 µM. For the same compound, the TGI [37] was > 100 µM, the TGI [38] was > 100 µM and the TGI [39] was > 100 µM. For the same compound, the TGI [40] was > 100 µM, the TGI [41] was > 100 µM and the TGI [42] was > 100 µM. For the same compound, the TGI [43] was > 100 µM, the TGI [44] was > 100 µM and the TGI [45] was > 100 µM. The TGI [46] was > 100 µM, the TGI [47] was > 100 µM and the TGI [48] was > 100 µM. The TGI [49] was > 100 µM, the TGI [50] was > 100 µM and the TGI [51] was > 100 µM.

With `OCC1OC(N2C=C(c3nc4ccccc4s3)C3C=CC=CC32)C(O)C1O` (stereo not drawn) the GI50 [3] was 12 µM, the TGI [3] was 24.5 µM and the GI50 [4] was 11.3 µM. For the same compound, the TGI [4] was 32.7 µM, the GI50 [5] was 13.4 µM and the TGI [5] was 36.6 µM. For the same compound, the GI50 [52] was 6.1 µM, the TGI [52] was 14.5 µM and the GI50 [1] was 2.34 µM. The TGI [1] was > 50 µM, the GI50 [6] was 7.91 µM and the TGI [6] was 17.7 µM. The GI50 [7] was 6 µM, the TGI [7] was 14.8 µM and the GI50 [8] was 16 µM. For the same compound, the TGI [8] was > 50 µM, the GI50 [9] was 21 µM and the TGI [9] was > 50 µM. The GI50 [10] was 7.8 µM, the TGI [10] was 26 µM and the GI50 [53] was 14.8 µM. The TGI [53] was > 50 µM, the GI50 [12] was 7.57 µM and the TGI [12] was 21.8 µM. The GI50 [13] was 14.3 µM, the TGI [13] was > 50 µM and the GI50 [14] was 9.17 µM. For the same compound, the TGI [14] was 22.1 µM, the GI50 [15] was 4.36 µM and the TGI [15] was 12.4 µM. For the same compound, the GI50 [16] was 8.2 µM, the TGI [16] was 25.8 µM and the GI50 [54] was 6.27 µM. For the same compound, the TGI [54] was 25.4 µM, the GI50 [17] was 7.92 µM and the TGI [17] was 22 µM. For the same compound, the GI50 [18] was 14.2 µM, the TGI [18] was > 50 µM and the GI50 [19] was 9.6 µM. It also gave a TGI [19] of 22.4 µM, a GI50 [55] of 9.55 µM and a TGI [55] of 27.5 µM. For the same compound, the GI50 [20] was > 50 µM, the TGI [20] was > 50 µM and the GI50 [21] was 10.8 µM. For the same compound, the TGI [21] was 27.8 µM, the GI50 [22] was 16.3 µM and the TGI [22] was > 50 µM. The GI50 [23] was 8.89 µM, the TGI [23] was 28.7 µM and the GI50 [24] was 8.81 µM. It also gave a TGI [24] of 25.5 µM, a GI50 [25] of 8.95 µM and a TGI [25] of 23.4 µM. For the same compound, the GI50 [56] was > 50 µM, the TGI [56] was > 50 µM and the GI50 [26] was 12.2 µM. For the same compound, the TGI [26] was 36.9 µM, the GI50 [27] was 6.65 µM and the TGI [27] was 21.9 µM. For the same compound, the GI50 [2] was 29.7 µM, the TGI [2] was > 50 µM and the GI50 [57] was 9.91 µM. The TGI [57] was > 50 µM, the GI50 [28] was 6.62 µM and the TGI [28] was 20.5 µM. The GI50 [29] was 9.82 µM, the TGI [29] was > 50 µM and the GI50 [30] was 7.1 µM. The TGI [30] was 18 µM, the GI50 [31] was 8.92 µM and the TGI [31] was 19 µM. The GI50 [32] was 12.7 µM, the TGI [32] was 41.2 µM and the GI50 [33] was 10.6 µM. For the same compound, the TGI [33] was 25.9 µM, the GI50 [34] was 13.1 µM and the TGI [34] was 43.6 µM. For the same compound, the GI50 [35] was 8.08 µM, the TGI [35] was 17.8 µM and the GI50 [36] was 8.59 µM. For the same compound, the TGI [36] was 42.4 µM, the GI50 [37] was 8.68 µM and the TGI [37] was 19.5 µM. The GI50 [38] was 18.9 µM, the TGI [38] was > 50 µM and the GI50 [39] was 11.4 µM. The TGI [39] was 29.5 µM, the GI50 [40] was 28.2 µM and the TGI [40] was > 50 µM. The GI50 [41] was 14.1 µM, the TGI [41] was 49.6 µM and the GI50 [42] was 5.95 µM. The TGI [42] was > 50 µM, the GI50 [43] was 11.1 µM and the TGI [43] was 34.3 µM. The GI50 [44] was 17.7 µM, the TGI [44] was > 50 µM and the GI50 [45] was 5.21 µM. The TGI [45] was > 50 µM, the GI50 [46] was 11.3 µM and the TGI [46] was 30.2 µM. For the same compound, the GI50 [48] was 9.32 µM, the TGI [48] was 22 µM and the GI50 [50] was 9.52 µM. The TGI [50] was 25.2 µM, the GI50 [51] was 8.11 µM and the TGI [51] was > 50 µM.

For `CCN1C/C(=C\c2ccc(Cl)cc2)C2=NN(c3ccccc3)C(c3ccc(Cl)cc3)C2C1` (stereo not drawn), the TGI [4] was > 100 µM, the TGI [52] was > 100 µM and the TGI [6] was > 100 µM. For the same compound, the TGI [8] was > 100 µM, the TGI [10] was > 100 µM and the TGI [14] was > 100 µM. The TGI [15] was > 100 µM, the TGI [16] was > 100 µM and the TGI [54] was > 100 µM. For the same compound, the TGI [17] was > 100 µM, the TGI [19] was > 100 µM and the TGI [55] was > 100 µM. For the same compound, the TGI [23] was > 100 µM, the TGI [24] was > 100 µM and the TGI [56] was > 100 µM. For the same compound, the TGI [26] was > 100 µM, the TGI [27] was > 100 µM and the TGI [57] was > 100 µM. The TGI [30] was > 100 µM, the TGI [31] was > 100 µM and the TGI [32] was > 100 µM. The TGI [33] was > 100 µM, the TGI [34] was > 100 µM and the TGI [36] was > 100 µM. For the same compound, the TGI [37] was > 100 µM, the TGI [38] was > 100 µM and the TGI [39] was > 100 µM. The TGI [40] was > 100 µM, the TGI [41] was > 100 µM and the TGI [42] was > 100 µM. For the same compound, the TGI [44] was > 100 µM and the TGI [45] was > 100 µM.
